Data on twelve compounds can be found in patent US20250163104A1, “MACROCYCLIC IMMUNOMODULATORS” (priority 2021, published 2025).

Where a SMILES comes first, the peptide text is derived from it. Bridges are numbered along the chain shown (N, C = ends). [ ]: non-standard residue; d: D form. Bip = N[C@@H](Cc1ccc(-c2ccccc2)cc1)C(=O)O; Orn = NCCC[C@H](N)C(=O)O; Dab = NCC[C@H](N)C(=O)O

The target of the experiment is T1, human PD-1 / PD-L1-Ig binding on Jurkat cell line over-expressing human PD-1 (Jurkat-PD-1) (Homo sapiens, UniProt Q15116).
T1 construct: expressed in transfected cells; host or cells: Jurkat
T1 sequence (Q15116 25-288): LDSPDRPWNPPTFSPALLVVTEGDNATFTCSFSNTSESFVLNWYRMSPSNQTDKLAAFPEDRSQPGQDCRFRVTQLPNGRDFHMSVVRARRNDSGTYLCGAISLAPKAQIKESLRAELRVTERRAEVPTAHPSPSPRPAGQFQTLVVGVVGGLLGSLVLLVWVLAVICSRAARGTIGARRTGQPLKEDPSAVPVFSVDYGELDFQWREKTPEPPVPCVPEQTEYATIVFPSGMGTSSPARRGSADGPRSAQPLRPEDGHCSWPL
Description: Jurkat-PD-1 Cell Binding High-Content Screening Assay (CBA). Format: cell-based. As to conditions: Jurkat-PD-1 cells, PE-labeled PD-L1-Ig 20 nM final; read-out: Jurkat HPD1_PDL1 IC50. The gist of the method: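 Jurkat-hPD-1 cells in DMEM with 10% fetal calf serum receive test compound and are held at 37° C for 2 h. PE-labeled PD-L1-Ig is added at 20 nM final and left for 1 hour. Cells are then fixed and Hoechst-stained, and binding is measured by imaging.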
Turning to `CC[C@H](C)[C@@H]1NC(=O)[C@H](Cc2ccc(-c3ccccc3)cc2)NC(=O)[C@H](C(C)C)NC(=O)[C@H](Cc2c[nH]c3ccccc23)NC(=O)[C@H](CC(=O)O)NC(=O)[C@H](Cc2ccc(O)cc2)NC(=O)[C@H](CC(N)=O)NC(=O)CSC[C@@H](C(=O)NCC(N)=O)NC(=O)[C@H]([C@@H](C)O)NC(=O)[C@H](C(C)C)NC(=O)[C@H](CC(C)C)NC(=O)[C@H](CCN)NC(=O)[C@@H](CC(C)C)NC(=O)[C@H](CCN)NC1=O` [Compound 1126] ({CH2CO}-NYDWV[Bip]I[Dab][dL][Dab]LVTCG-NH2; thioether N-14), the half-inhibitory concentration (IC50) worked out at 23.9 nM.
Consider `CC(C)C[C@@H]1NC(=O)[C@H](CCN)NC(=O)[C@@H](CC(C)C)NC(=O)[C@H](CCCN)NC(=O)[C@H](C(C)C)NC(=O)[C@H](Cc2ccc(-c3ccccc3)cc2)NC(=O)[C@H](C(C)C)NC(=O)[C@H](Cc2c[nH]c3ccccc23)NC(=O)[C@H](CC(=O)O)NC(=O)[C@H](Cc2ccc(O)cc2)NC(=O)[C@H](CC(N)=O)NC(=O)CSC[C@@H](C(=O)N[C@@H](C)C(N)=O)NC(=O)[C@H](CO)NC(=O)[C@H](C(C)C)NC1=O` [Compound 1127] ({CH2CO}-NYDWV[Bip]V[Orn][dL][Dab]LVSCA-NH2; thioether N-14), for which the IC50 worked out at 15 nM.
Under `CC(C)C[C@@H]1NC(=O)[C@H](CCN)NC(=O)[C@@H](CC(C)C)NC(=O)[C@H](CCCCN)NC(=O)[C@H](C(C)C)NC(=O)[C@H](Cc2ccc(-c3ccccc3)cc2)NC(=O)[C@H](C(C)C)NC(=O)[C@H](Cc2c[nH]c3ccccc23)NC(=O)[C@H](CC(=O)O)NC(=O)[C@H](Cc2ccc(O)cc2)NC(=O)[C@H](CC(N)=O)NC(=O)CSC[C@@H](C(=O)N[C@@H](C)C(N)=O)NC(=O)[C@H](CO)NC(=O)[C@H](C(C)C)NC1=O` [Compound 1128] ({CH2CO}-NYDWV[Bip]VK[dL][Dab]LVSCA-NH2; thioether N-14) stands 17.6 nM; under `CC[C@H](C)[C@@H]1NC(=O)[C@H](Cc2ccc(-c3ccccc3)cc2)NC(=O)[C@H](C(C)C)NC(=O)[C@H](Cc2c[nH]c3ccccc23)NC(=O)[C@H](CC(=O)O)NC(=O)[C@H](Cc2ccc(O)cc2)NC(=O)[C@H](CC(N)=O)NC(=O)CSC[C@@H](C(=O)N[C@@H](C)C(N)=O)NC(=O)[C@H]([C@@H](C)O)NC(=O)[C@H](C(C)C)NC(=O)[C@H](CC(C)C)NC(=O)[C@H](CCCCN)NC(=O)[C@@H](CC(C)C)NC(=O)[C@H](CCCN)NC1=O` [Compound 1129] ({CH2CO}-NYDWV[Bip]I[Orn][dL]KLVTCA-NH2; thioether N-14), 19.7 nM; under `CC(C)C[C@@H]1NC(=O)[C@H](CCCCN)NC(=O)[C@@H](CC(C)C)NC(=O)[C@H](CCCN)NC(=O)[C@H](C(C)C)NC(=O)[C@H](Cc2ccc(-c3ccccc3)cc2)NC(=O)[C@H](C(C)C)NC(=O)[C@H](Cc2c[nH]c3ccccc23)NC(=O)[C@H](CC(=O)O)NC(=O)[C@H](Cc2ccc(O)cc2)NC(=O)[C@H](CC(N)=O)NC(=O)CSC[C@@H](C(=O)N[C@@H](C)C(N)=O)NC(=O)[C@H]([C@@H](C)O)NC(=O)[C@H](C(C)C)NC1=O` [Compound 1130] ({CH2CO}-NYDWV[Bip]V[Orn][dL]KLVTCA-NH2; thioether N-14), 19.5 nM.
Under `CC[C@H](C)[C@@H]1NC(=O)[C@H](Cc2ccc(-c3ccccc3)cc2)NC(=O)[C@H](C(C)C)NC(=O)[C@H](Cc2c[nH]c3ccccc23)NC(=O)[C@H](CC(=O)O)NC(=O)[C@H](Cc2ccc(O)cc2)NC(=O)[C@H](CC(N)=O)NC(=O)CSC[C@@H](C(=O)NCC(N)=O)NC(=O)[C@H]([C@@H](C)O)NC(=O)[C@H](C(C)C)NC(=O)[C@H](CC(C)C)NC(=O)[C@H](CCCCN)NC(=O)[C@@H](CC(C)C)NC(=O)[C@H](CCCN)NC1=O` [Compound 1131] ({CH2CO}-NYDWV[Bip]I[Orn][dL]KLVTCG-NH2; thioether N-14) stands 24.8 nM.
With `CC(C)C[C@@H]1NC(=O)[C@H](CCCCN)NC(=O)[C@@H](CC(C)C)NC(=O)[C@H](CCCN)NC(=O)[C@H](C(C)C)NC(=O)[C@H](Cc2ccc(-c3ccccc3)cc2)NC(=O)[C@H](C(C)C)NC(=O)[C@H](Cc2c[nH]c3ccccc23)NC(=O)[C@H](CC(=O)O)NC(=O)[C@H](Cc2ccc(O)cc2)NC(=O)[C@H](CC(N)=O)NC(=O)CSC[C@@H](C(=O)N[C@@H](C)C(N)=O)NC(=O)[C@H](CO)NC(=O)[C@H](C(C)C)NC1=O` [Compound 1132] ({CH2CO}-NYDWV[Bip]V[Orn][dL]KLVSCA-NH2; thioether N-14), the IC50 stood at 20.7 nM.
Next, `CC(C)C[C@@H]1NC(=O)[C@H](CCCCN)NC(=O)[C@@H](CC(C)C)NC(=O)[C@H](CCCN)NC(=O)[C@H](Cc2cnc[nH]2)NC(=O)[C@H](Cc2ccc(-c3ccccc3)cc2)NC(=O)[C@H](C(C)C)NC(=O)[C@H](Cc2c[nH]c3ccccc23)NC(=O)[C@H](CC(=O)O)NC(=O)[C@H](Cc2ccc(O)cc2)NC(=O)[C@H](CC(N)=O)NC(=O)CSC[C@@H](C(=O)N[C@@H](C)C(N)=O)NC(=O)[C@H]([C@@H](C)O)NC(=O)[C@H](C(C)C)NC1=O` [Compound 1133] ({CH2CO}-NYDWV[Bip]H[Orn][dL]KLVTCA-NH2; thioether N-14): 33.1 nM; `CC(C)C[C@@H]1NC(=O)[C@H](CCCCN)NC(=O)[C@@H](CC(C)C)NC(=O)[C@H](CCCN)NC(=O)[C@H](Cc2cnc[nH]2)NC(=O)[C@H](Cc2ccc(-c3ccccc3)cc2)NC(=O)[C@H](C(C)C)NC(=O)[C@H](Cc2c[nH]c3ccccc23)NC(=O)[C@H](CC(=O)O)NC(=O)[C@H](Cc2ccc(O)cc2)NC(=O)[C@H](CC(N)=O)NC(=O)CSC[C@@H](C(=O)N[C@@H](C)C(N)=O)NC(=O)[C@H](CO)NC(=O)[C@H](C(C)C)NC1=O` [Compound 1134] ({CH2CO}-NYDWV[Bip]H[Orn][dL]KLVSCA-NH2; thioether N-14): 32.1 nM.
Next, `CC(C)C[C@@H]1NC(=O)[C@H](CCCCN)NC(=O)[C@@H](CC(C)C)NC(=O)[C@H](CCCN)NC(=O)[C@H](Cc2cnc[nH]2)NC(=O)[C@H](Cc2ccc(-c3ccccc3)cc2)NC(=O)[C@H](C(C)C)NC(=O)[C@H](Cc2c[nH]c3ccccc23)NC(=O)[C@H](CC(=O)O)NC(=O)[C@H](Cc2ccc(O)cc2)NC(=O)[C@H](CC(N)=O)NC(=O)CSC[C@@H](C(=O)NCC(N)=O)NC(=O)[C@H](CO)NC(=O)[C@H](C(C)C)NC1=O` [Compound 1135] ({CH2CO}-NYDWV[Bip]H[Orn][dL]KLVSCG-NH2; thioether N-14): 13 nM.
Next, `CC(C)C[C@@H]1NC(=O)[C@H](CCCCN)NC(=O)[C@@H](CC(C)C)NC(=O)[C@H](CCCN)NC(=O)[C@H](Cc2cnc[nH]2)NC(=O)[C@H](Cc2ccc(-c3ccccc3)cc2)NC(=O)[C@H](C(C)C)NC(=O)[C@H](Cc2c[nH]c3ccccc23)NC(=O)[C@H](CC(=O)O)NC(=O)[C@H](Cc2ccc(O)cc2)NC(=O)[C@H](CC(N)=O)NC(=O)CSC[C@@H](C(=O)NCC(N)=O)NC(=O)[C@H]([C@@H](C)O)NC(=O)[C@H](C(C)C)NC1=O` [Compound 1136] ({CH2CO}-NYDWV[Bip]H[Orn][dL]KLVTCG-NH2; thioether N-14): 50.8 nM.
Regarding `CC(C)C[C@@H]1NC(=O)[C@H](CCCCN)NC(=O)[C@@H](CC(C)C)NC(=O)[C@H](CCN)NC(=O)[C@H](Cc2cnc[nH]2)NC(=O)[C@H](Cc2ccc(-c3ccccc3)cc2)NC(=O)[C@H](C(C)C)NC(=O)[C@H](Cc2c[nH]c3ccccc23)NC(=O)[C@H](CC(=O)O)NC(=O)[C@H](Cc2ccc(O)cc2)NC(=O)[C@H](CC(N)=O)NC(=O)CSC[C@@H](C(=O)N[C@@H](C)C(N)=O)NC(=O)[C@H]([C@@H](C)O)NC(=O)[C@H](C(C)C)NC1=O` [Compound 1137] ({CH2CO}-NYDWV[Bip]H[Dab][dL]KLVTCA-NH2; thioether N-14), the IC50 turned out to be 47 nM.

By IC50 is commonly meant the concentration needed to halve the response being measured.
